Experimental data taken from patent US20220296541A1, “N-PALMITOYL-ETHANOLAMIDE FOR USE IN THE PREVENTION OF COLORECTAL CARCINOMA” (priority 2021, published 2022).

How the values were obtained:
[1] = test system: healthy human colon epithelial cells HCEC; experiment: BrdU proliferation ELISA, healthy colon epithelial cells HCEC; format: cell-based; conditions: 24 h (FIG. 2C)
Method: (§1) For the in vitro experiments, immortalized human colon cancer (HCT116) and human colorectal adenocarcinoma cell lines (Caco-2) and immortalized healthy human colon epithelial cells (HCEC) were cultured in DMEM growth medium (Sigma Aldrich) supplemented with 10% serum bovine fetal (FBS, Sigma Aldrich) and kept at 37° C. in an incubator with a 5% CO2 atmosphere.
(§2) To assess viability, the cells are stained with Trypan blue while cell proliferation, in the presence or absence of ultra-micronized PEA (1-30 μM), was determined using the BrdU proliferation ELISA kit (Roche, Milan, Italy).

HCT116 cells [2] = experiment: BrdU proliferation ELISA, HCT116 cells; format: cell-based, human; conditions: 1-30 μM, 24 hours of exposure (FIG. 2A)
Method: as §1, §2

Caco-2 cells = experiment: BrdU proliferation ELISA, Caco-2 cells; format: cell-based, human; conditions: 30 μM, 24 h (FIG. 2B)
Method: as §1, §2

cyclin B1 = experiment: Gene expression of cyclin B1 by Real-Time PCR in HCT116 cells; format: cell-based, human; conditions: 30 μM for 24 h (FIG. 3B)
Method: as §1
(§3) The expression of the CDK1 and CYCLIN B1 genes was evaluated by virtue of the quantitative Real-Time PCR method using specific primers.

[3] = test system: AOM-induced ACF, polyps and tumors; experiment: AOM mouse model of colon cancer; format: in vivo, male CD1 mice; conditions: 10 mg/kg per os three times a week for 13 weeks, starting the week before first AOM
Method: The in vivo study was conducted on six-week-old (25-30 g) male CD1 mice fed ad libitum and housed in cages with a controlled sleep/wake cycle. Before the start of the experimentation, the animals were subjected to an acclimatization period of 1 week considering all the experimental procedures and protocols, compliant with the principles of the care of laboratory animals approved by the Italian Ministry of Health and respecting the ARRIVE guidelines [Curtis M J et al. Experimental design and analysis and their reporting II: updated and simplified guidance for authors and peer reviewers. […] The animals were chemically treated with AOM (azoxymethane, 40 mg/kg in total) [Neufert C et al. An inducible mouse model of colon carcinogenesis for the analysis of sporadic and inflammation-driven tumor progression. […] A single dose of AOM was injected intraperitoneally at a concentration of 10 mg/kg at the beginning of the first, second, third and fourth weeks of the experiment [Pagano E et al. Pharmacological inhibition of MAGL attenuates experimental colon carcinogenesis, Pharmacol Res 2017; 119: 227-236]. […] The animals were euthanized 12 weeks after the first AOM injection and the colorectal area was collected. […] The detection and quantification of ACF, polyps and colorectal tumors was performed following the protocol of Pagano E et al. Pharmacological inhibition of MAGL attenuates experimental colon carcinogenesis, Pharmacol Res 2017; 119: 227-236.

HCT116 cells [4] = experiment: Cell cycle analysis by flow cytometry (BrdU/7-AAD) of HCT116 cells; format: cell-based, human; conditions: 30 μM for 24 h (FIG. 3A)
Method: as §1
The cell cycle analysis of HCT116 cells was performed following the protocol reported in the BD Pharmingen™ BrdU Flow Kit (BD Biosciences, USA). For the study, 1.5×10^5 cells was sown on 6-well plates and kept overnight in serum-free medium in the presence or absence of ultra-micronized PEA (30μM) for 24 h. The cells were detected with the BriCyte flow cytometer (Mindray, Italy) according to the BrdU (bromodeoxyuridine) and 7-AAD (7-aminoactinomycin D) content thereof. The data obtained were analyzed with FlowJo v10 software (tree Star, USA) to understand the distribution of HCT116 in the different cell cycle phases.

[5] = test system: cyclic-dependent kinase 1 (CDK1); experiment: Gene expression of CDK1 by Real-Time PCR in HCT116 cells; format: cell-based, human; conditions: 30 μM for 24 h (FIG. 3C)
Method: as §1, §3

`CCCCCCCCCCCCCCCC(=O)NCCO` [ultra-micronized PEA, palmitoylethanolamide] was tested, and the “proliferation rate of the healthy epithelial cell line HCEC” value [1] was “did not affect the proliferation rate”, the “proliferation rate of HCT116 cells” value (HCT116 cells [2]) was “reduces the proliferation rate” and the “proliferation of non-metastatic Caco-2 cells” value (Caco-2 cells) was “significantly reducing the proliferation”. The “expression of cyclin B1” value (cyclin B1) was “increased expression”, the “number of pre-neoplastic ACF lesions” value ([3]; vs AOM alone (FIG. 4A)) was “significantly reduces” and the number of polyps ([3]; vs AOM alone (FIG. 4B)) was “strong tendency to also reduce”. The “total number of tumors” value ([3]; vs AOM alone (FIG. 4C)) was “significantly reduces”, the “cell cycle arrest in the G2/M phase” value (HCT116 cells [4]) was “blocking neoplastic cells in the G2/M phase” and the “percentage of cells in the S phase” value (HCT116 cells [4]) was “significant reduction”. For the same molecule, the “expression of CDK1” value [5] was “increased expression”.
